Legend:
OVCAR-5 = assay: NCI in vitro DTP human cell line screen, OVCAR-5; format: cell-based; conditions: Ovarian Cancer, 1.00E−5 Molar
Description: (§1) Then, a cell toxicity assay of the cancer lines made by National Cancer Institute will be discussed as follows. The cell toxicity assay is performed by choosing ten compounds (existing certification numbers) from the 59 compounds disclosed in the present invention first.

CCRF-CEM = assay: NCI in vitro DTP human cell line screen, CCRF-CEM; format: cell-based; conditions: Leukemia, 1.00E−5 Molar
Description: as §1

SK-OV-3 = assay: NCI in vitro DTP human cell line screen, SK-OV-3; format: cell-based; conditions: Ovarian Cancer, 1.00E−5 Molar
Description: as §1

OVCAR-3 = assay: NCI in vitro DTP human cell line screen, OVCAR-3; format: cell-based; conditions: Ovarian Cancer, 1.00E−5 Molar
Description: as §1

K562 = assay: NCI in vitro DTP human cell line screen, K562; format: cell-based; conditions: Leukemia, 1.00E−5 Molar
Description: as §1

HS 578-T = assay: NCI in vitro DTP human cell line screen, HS 578-T; format: cell-based; conditions: Breast Cancer, 1.00E−5 Molar
Description: as §1

[1] = MTT assay, HEL299 fibroblast; format: cell-based; conditions: human, HEL299, normal fibroblast; read-out: cell viabilities of HEL299 cell lines (MTT assay)
Description: Please refer to FIG. 4C, various cell viabilities of the HEL299 cell lines can be obtained through the MTT assay while the compounds No. 1˜30 are used to treat HEL299 cell lines, wherein HEL299 cell lines are fibroblast.

UACC-62 = assay: NCI in vitro DTP human cell line screen, UACC-62; format: cell-based; conditions: Melanoma, 1.00E−5 Molar
Description: as §1

MCF7 = assay: NCI in vitro DTP human cell line screen, MCF7; format: cell-based; conditions: Breast Cancer, 1.00E−5 Molar
Description: as §1

SF-295 = assay: NCI in vitro DTP human cell line screen, SF-295; format: cell-based; conditions: CNS Cancer, 1.00E−5 Molar
Description: as §1

M14 = assay: NCI in vitro DTP human cell line screen, M14; format: cell-based; conditions: Melanoma, 1.00E−5 Molar
Description: as §1

U251 = assay: NCI in vitro DTP human cell line screen, U251; format: cell-based; conditions: CNS Cancer, 1.00E−5 Molar
Description: as §1

OVCAR-4 = assay: NCI in vitro DTP human cell line screen, OVCAR-4; format: cell-based; conditions: Ovarian Cancer, 1.00E−5 Molar
Description: as §1

HL-60(TB) = assay: NCI in vitro DTP human cell line screen, HL-60(TB); format: cell-based; conditions: Leukemia, 1.00E−5 Molar
Description: as §1

60 cancer lines = assay: NCI cell toxicity assay of 60 cancer lines, whole panel summary; format: cell-based, human; conditions: 1.00E−5 Molar
Description: as §1

SK-MEL-5 = assay: NCI in vitro DTP human cell line screen, SK-MEL-5; format: cell-based; conditions: Melanoma, 1.00E−5 Molar
Description: as §1

SNB-75 = assay: NCI in vitro DTP human cell line screen, SNB-75; format: cell-based; conditions: CNS Cancer, 1.00E−5 Molar
Description: as §1

SW-620 = assay: NCI in vitro DTP human cell line screen, SW-620; format: cell-based; conditions: Colon Cancer, 1.00E−5 Molar
Description: as §1

NCI-H460 = assay: NCI in vitro DTP human cell line screen, NCI-H460; format: cell-based; conditions: Non-Small Cell Lung Cancer, 1.00E−5 Molar
Description: as §1

ACHN = assay: NCI in vitro DTP human cell line screen, ACHN; format: cell-based; conditions: Renal Cancer, 1.00E−5 Molar
Description: as §1

KM12 = assay: NCI in vitro DTP human cell line screen, KM12; format: cell-based; conditions: Colon Cancer, 1.00E−5 Molar
Description: as §1

NCI-H522 = assay: NCI in vitro DTP human cell line screen, NCI-H522; format: cell-based; conditions: Non-Small Cell Lung Cancer, 1.00E−5 Molar
Description: as §1

HCT-15 = assay: NCI in vitro DTP human cell line screen, HCT-15; format: cell-based; conditions: Colon Cancer, 1.00E−5 Molar
Description: as §1

SF-268 = assay: NCI in vitro DTP human cell line screen, SF-268; format: cell-based; conditions: CNS Cancer, 1.00E−5 Molar
Description: as §1

COLO 205 = assay: NCI in vitro DTP human cell line screen, COLO 205; format: cell-based; conditions: Colon Cancer, 1.00E−5 Molar
Description: as §1

HT29 = assay: NCI in vitro DTP human cell line screen, HT29; format: cell-based; conditions: Colon Cancer, 1.00E−5 Molar
Description: as §1

SN12C = assay: NCI in vitro DTP human cell line screen, SN12C; format: cell-based; conditions: Renal Cancer, 1.00E−5 Molar
Description: as §1

CAKI-1 = assay: NCI in vitro DTP human cell line screen, CAKI-1; format: cell-based; conditions: Renal Cancer, 1.00E−5 Molar
Description: as §1

SNB-19 = assay: NCI in vitro DTP human cell line screen, SNB-19; format: cell-based; conditions: CNS Cancer, 1.00E−5 Molar
Description: as §1

UO-31 = assay: NCI in vitro DTP human cell line screen, UO-31; format: cell-based; conditions: Renal Cancer, 1.00E−5 Molar
Description: as §1

PC-3 = assay: NCI in vitro DTP human cell line screen, PC-3; format: cell-based; conditions: Prostate Cancer, 1.00E−5 Molar
Description: as §1

EKVX = assay: NCI in vitro DTP human cell line screen, EKVX; format: cell-based; conditions: Non-Small Cell Lung Cancer, 1.00E−5 Molar
Description: as §1

NCI/ADR-RES = assay: NCI in vitro DTP human cell line screen, NCI/ADR-RES; format: cell-based; conditions: Ovarian Cancer, 1.00E−5 Molar
Description: as §1

MDA-MB-231/ATCC = assay: NCI in vitro DTP human cell line screen, MDA-MB-231/ATCC; format: cell-based; conditions: Breast Cancer, 1.00E−5 Molar
Description: as §1

HOP-62 = assay: NCI in vitro DTP human cell line screen, HOP-62; format: cell-based; conditions: Non-Small Cell Lung Cancer, 1.00E−5 Molar
Description: as §1

SK-MEL-2 = assay: NCI in vitro DTP human cell line screen, SK-MEL-2; format: cell-based; conditions: Melanoma, 1.00E−5 Molar
Description: as §1

LOX IMVI = assay: NCI in vitro DTP human cell line screen, LOX IMVI; format: cell-based; conditions: Melanoma, 1.00E−5 Molar
Description: as §1

RPMI-8226 = assay: NCI in vitro DTP human cell line screen, RPMI-8226; format: cell-based; conditions: Leukemia, 1.00E−5 Molar
Description: as §1

786-0 = assay: NCI in vitro DTP human cell line screen, 786-0; format: cell-based; conditions: Renal Cancer, 1.00E−5 Molar
Description: as §1

SK-MEL-28 = assay: NCI in vitro DTP human cell line screen, SK-MEL-28; format: cell-based; conditions: Melanoma, 1.00E−5 Molar
Description: as §1

NCI-H226 = assay: NCI in vitro DTP human cell line screen, NCI-H226; format: cell-based; conditions: Non-Small Cell Lung Cancer, 1.00E−5 Molar
Description: as §1

BT-549 = assay: NCI in vitro DTP human cell line screen, BT-549; format: cell-based; conditions: Breast Cancer, 1.00E−5 Molar
Description: as §1

RXF 393 = assay: NCI in vitro DTP human cell line screen, RXF 393; format: cell-based; conditions: Renal Cancer, 1.00E−5 Molar
Description: as §1

MDA-MB-435 = assay: NCI in vitro DTP human cell line screen, MDA-MB-435; format: cell-based; conditions: Melanoma, 1.00E−5 Molar
Description: as §1

NCI-H322M = assay: NCI in vitro DTP human cell line screen, NCI-H322M; format: cell-based; conditions: Non-Small Cell Lung Cancer, 1.00E−5 Molar
Description: as §1

NCI-H23 = assay: NCI in vitro DTP human cell line screen, NCI-H23; format: cell-based; conditions: Non-Small Cell Lung Cancer, 1.00E−5 Molar
Description: as §1

MALME-3M = assay: NCI in vitro DTP human cell line screen, MALME-3M; format: cell-based; conditions: Melanoma, 1.00E−5 Molar
Description: as §1

UACC-257 = assay: NCI in vitro DTP human cell line screen, UACC-257; format: cell-based; conditions: Melanoma, 1.00E−5 Molar
Description: as §1

O=c1c2ccccc2sc2c(Cl)c(SCc3ccccc3)ccc12 [No. 23, 3-(Benzylthio)-4-chloro-9H-thioxanthen-9-one]
Growth Percent (OVCAR-5): 94.34% | Growth Percent (CCRF-CEM): 59.07% | Growth Percent (SK-OV-3): 94.39% | Growth Percent (OVCAR-3): 76.97% | Growth Percent (K562): 86.95% | Growth Percent (HS 578-T): 91.28% | viability [1]: 82.5% | Growth Percent (UACC-62): 90.92% | Growth Percent (MCF7): 89.62% | Growth Percent (SF-295): 63.22% | Growth Percent (M14): 102.67% | Growth Percent (U251): 38.89% | Growth Percent (OVCAR-4): 15.10% | Growth Percent (HL-60(TB)): 115.59% | Growth Percent, Mean (60 cancer lines; mean over all cell lines): 81.22% | cancer types with the better inhibition effect (in words) (60 cancer lines; summary of Table 3): better inhibition effect on Leukemia, non-small cell lung cancer, colorectal cancer, central nervous system cancer, ovarian cancer and kidney cancer | Growth Percent (SK-MEL-5): 99.73% | Growth Percent (SNB-75): 75.12% | Growth Percent (SW-620): 69.53% | Growth Percent (NCI-H460): 29.14% | Growth Percent (ACHN): 26.15% | Growth Percent (KM12): 104.90% | Growth Percent (NCI-H522): 95.48% | Growth Percent (HCT-15): 82.20% | Growth Percent (SF-268): 100.29% | Growth Percent (COLO 205): 63.36% | Growth Percent (HT29): 60.70% | Growth Percent (SN12C): 79.25% | Growth Percent (CAKI-1): 54.75% | Growth Percent (SNB-19): 83.57% | Growth Percent (UO-31): 66.76% | Growth Percent (PC-3): 83.92% | Growth Percent (EKVX): 93.46% | Growth Percent (NCI/ADR-RES): 90.62% | Growth Percent (MDA-MB-231/ATCC): 71.98% | Growth Percent (HOP-62): 94.64% | Growth Percent (SK-MEL-2): 116.81% | Growth Percent (LOX IMVI): 62.94% | Growth Percent (RPMI-8226): 89.98% | Growth Percent (786-0): 78.53% | Growth Percent (SK-MEL-28): 119.10% | Growth Percent (NCI-H226): 90.97% | Growth Percent (BT-549): 84.98% | Growth Percent (RXF 393): 106.84% | Growth Percent (MDA-MB-435): 91.01% | Growth Percent (NCI-H322M): 70.18% | Growth Percent (NCI-H23): 97.59% | Growth Percent (MALME-3M): 93.38% | Growth Percent (UACC-257): 109.84%
